Results reported in US11795381B2, “Using synthetic acid compositions as alternatives to conventional acids in the oil and gas industry” (priority 2016, dated 2023).
Where a name gives a salt, the structure may show the parent alone.

Key:
[1] = in the presence of iron (III)
[2] = Stability of urea on exposure to higher temperature; assay type: physicochemical; conditions: 180° C. for 8 h
Protocol: In order to assess the stability of synthetic acids containing urea, the stability of urea was tested by only considering its exposure to higher temperature. Urea 50% diluted with 50% seawater @ 180° C. for 8 h. […] This confirms that synthetic acids containing urea have decreasing stability when heated above 90° C. and are less desirable to use than compositions according to the present invention which have stability when exposed to temperatures above 200° C.

observation after exposure to high temperature [2] | pH after exposure to high temperature [2] | pH before exposure to high temperature [2] | Compound | pH of full precipitation [1]
– | – | – | Cl [HCl, hydrochloric acid] | approximately 2.5
strong ammonia smell | 9.44 | 7.61 | Urea [Urea 50% diluted with 50% seawater] | –
